From patent US12090164B2, “Genotype-agnostic rescue of cystic fibrosis with small molecule bicarbonate channels” (The Board of Trustees of the University of Illinois, priority 2017, dated 2024)
“Also recorded” adds a separate entry of the source.

Tests used:
[1] = in vivo; cited from earlier work
CuFi-1 epithelia = assay: Transepithelial electrical resistance (Rt); format: cell-based, human; settings: vehicle, 2 uM or 50 uM AmB, extended timeframes
Experimental: Small diameter CuFi-1 cultured epithelia were used for this experiment (0.33 cm^2) Cultured epithelia were treated with FC-72 vehicle, 2 and 50 μM AmB administered in perfluorocarbon (FC-72, Sigma) for 48 hours, 7 days, or 28 days. 200 μL of fresh USG media was placed on the apical side of the epithelia. Transepithelial electrical resistance (Rt) was then measured using a Millicell® ERS-2 Voltohmmeter across the apical and basolateral sides of the epithelia in a snaking pattern for two technical replicates per biological replicate.

[2] = test system: non-CF primary cultured epithelia; assay: ASL pH in non-CF primary cultured epithelia; format: cell-based, human; settings: AmB 2 μM, 48 h
Experimental: Airway epithelial cells were obtained from human trachea and bronchi of CF and non-CF specimens obtained from the Iowa Donor Network, either as post-mortem specimens or from tissue deemed not fit for transplant. Studies were approved by the University of Iowa Institutional Review Board. After pronase enzymatic digestion, cells were seeded onto collagen-coated semi-permeable membranes (0.33-1.12 cm^2, Corning 3470 polyester, 3460 polyester, 3413 polycarbonate) and grown at an air-liquid interface (52). Airway epithelial cell cultures were analyzed after they had differentiated and at least 14 days post-seeding.
Small diameter NuLi, CuFi, and primary cultured epithelia were used for this experiment (0.33 cm^2). The ratiometric pH indicator SNARF-conjugated dextran (Molecular Probes) was used to measure ASL pH. […] ASL pH was measured 2 hr later (3, 4, 25). SNARF was excited at 488 nm and emission was recorded at 580 nm and 640 nm using a Zeiss LSM 800 microscope at 40× water immersion for cell line cultures and a Zeiss LSM 510 microscope for primary cultures. To generate a standard curve for pH determination, SNARF was dissolved in colorless pH standards and fluorescence ratios were converted to pH. […]
In all experiments, ASL pH of compound-treated epithelia was measured compared the results to vehicle-treated epithelia. […]

[3] = test system: primary cultured human CF epithelia; assay: ASL viscosity (FITC-dextran FRAP); format: cell-based; settings: AmB 2 μM, 48 h
Experimental: ASL viscosity in airway epithelial cultures was determined (7, 25). Small diameter primary cultured epithelia were used for this experiment (0.33 cm^2). The apical surface was not washed for at least 2 weeks before study. Cultured epithelia were treated with 2 µM AmB administered in perfluorocarbon (FC-72, Sigma) for 48 hours. FITC-dextran (70 kD, Sigma) was then administered to the apical surface of epithelia as a dry powder 2 hrs before measurement of viscosity. FRAP was assayed in a humidified chamber at 37° C. using a Zeiss LSM 510 μMETA microscope. Images were acquired until maximal recovery was reached. At least 6 recovery curves from different locations in each culture were acquired and averaged to obtain data for one epithelial culture. The time constant […] was calculated by regression analysis from fluorescence recovery curves. Viscosity is expressed relative to the time constant of saline (τASL/τsaline).

[4] = test system: CuFi-1 epithelial monolayers; assay: pH-stat titration of apical alkalinization; format: cell-based, human; settings: AmB 0.5, 1, 2 μM
Experimental: Large diameter NuLi and CuFi-1 cultured epithelia were used for this experiment (4.67 cm^2). These cultures were mounted in a dual-channel Ussing chamber (Warner U2500) using the culture cup insert for Transwell adapter, 24 mm (U9924T-24). The membranes were bathed at 37° C. on the apical side with a buffer-free solution (140 mM NaCl, 2 mM KCl, 2 mM CaCl2), and 1 mM MgCl2, 15 mM dextrose, gassed with air) and on the basolateral side with either a HCO3^− buffer (120 mM NaCl, 25 mM NaHCO3, 5 mM KCl, 2 mM CaC2, 1.2 mM MgCl2, 13.75 NaH2PO4, 5.6 mM dextrose, pH adjusted to 7.0) or a HCO3^−-free buffer (140 mM NaCl, 2 mM KCl, 2 mM CaCl2), 1 mM MgCl2, 10 mM HEPES, 5 mM dextrose, pH adjusted to 7.0). A microdiameter pH electrode (89231-590) and temperature probe (Radiometer Analytical T201 Temperature Sensor, E51M001) and titration burette attached to a Hach TIM856 NB pH/EP/Stat pH-STAT Titrator (R41T028) were inserted into the apical chamber. The basolateral chamber was covered with the chamber lid to prevent gas exchange. […]
The apical pH was titrated to a target pH of 6.0 using 1 mM HCl as titrant (min speed 0.25 mL/min, max speed 0.35 mL/min) (28, 57-59). Acid titration was measured over 20 minutes to establish a baseline value for the cultured epithelia […]. […] Acid titration was then measured over another 20 minutes to evaluate AmB-mediated pH change in the apical solution. […]

## C[C@@H]1[C@H](O)[C@@H](C)/C=C/C=C/C=C/C=C/C=C/C=C/C=C/[C@H](O[C@@H]2O[C@H](C)[C@@H](O)[C@H](N)[C@@H]2O)C[C@@H]2O[C@](O)(C[C@@H](O)C[C@@H](O)[C@H](O)CC[C@@H](O)C[C@@H](O)CC(=O)O[C@H]1C)C[C@H](O)[C@H]2C(=O)O [AmB, amphotericin B]
[1]
  toxicity to humans: significant toxicity to humans
CuFi-1 epithelia
  membrane integrity / transepithelial electrical resistance (Rt): did not disrupt membrane integrity; also recorded: no difference in transepithelial electrical resistance; also recorded: did not differ between treatment with vehicle or increasing doses of AmB
[2]
  ASL pH of non-CF primary epithelia: had no effect on the pH of non-CF primary cultured epithelia
[3]
  ASL viscosity (τASL/τsaline): decreased ASL viscosity across a wide range of patient genotypes
  average magnitude of viscosity reduction: ~1.5 units
[4]; HCO3−-free buffer
  rate of apical alkalinization, bicarbonate free basolateral buffer: no change in rate of apical alkalinization was observed with any tested concentration of AmB; also recorded: not in the absence of basolateral bicarbonate
[4]; basolateral bicarbonate 25 mM
  rate of apical chamber alkalinization, basolateral bicarbonate present: increased the rate of apical chamber alkalization of CuFi-1 epithelia in a dose-dependent fashion; also recorded: dose-dependent increase in ASL pH
